Measured values: BigSolDB 2.1

## Oc1ccccc1C=N[C@@H]1CCCC[C@H]1N=Cc1ccccc1O
In 1,2-dichloroethane, 273.15 K
  solubility (mole fraction): 0.0862
In 1,2-dichloroethane, 278.15 K
  solubility (mole fraction): 0.0965
In 1,2-dichloroethane, 283.15 K
  solubility (mole fraction): 0.109
In 1,2-dichloroethane, 288.15 K
  solubility (mole fraction): 0.12
In 1,2-dichloroethane, 293.15 K
  solubility (mole fraction): 0.134
In 1,2-dichloroethane, 298.15 K
  solubility (mole fraction): 0.15
In 1,2-dichloroethane, 303.15 K
  solubility (mole fraction): 0.168
In 1,2-dichloroethane, 308.15 K
  solubility (mole fraction): 0.187
In 1,2-dichloroethane, 313.15 K
  solubility (mole fraction): 0.211
In THF, 273.15 K
  solubility (mole fraction): 0.135
In THF, 278.15 K
  solubility (mole fraction): 0.144
In THF, 283.15 K
  solubility (mole fraction): 0.157
In THF, 288.15 K
  solubility (mole fraction): 0.169
In THF, 293.15 K
  solubility (mole fraction): 0.186
In THF, 298.15 K
  solubility (mole fraction): 0.201
In THF, 303.15 K
  solubility (mole fraction): 0.221
In THF, 308.15 K
  solubility (mole fraction): 0.242
In THF, 313.15 K
  solubility (mole fraction): 0.263
In acetone, 273.15 K
  solubility (mole fraction): 0.0295
In acetone, 278.15 K
  solubility (mole fraction): 0.0351
In acetone, 283.15 K
  solubility (mole fraction): 0.0402
In acetone, 288.15 K
  solubility (mole fraction): 0.0462
In acetone, 293.15 K
  solubility (mole fraction): 0.053
In acetone, 298.15 K
  solubility (mole fraction): 0.0626
In acetone, 303.15 K
  solubility (mole fraction): 0.0732
In acetone, 308.15 K
  solubility (mole fraction): 0.0843
In acetone, 313.15 K
  solubility (mole fraction): 0.0956
In acetonitrile, 273.15 K
  solubility (mole fraction): 0.00397
In acetonitrile, 278.15 K
  solubility (mole fraction): 0.00491
In acetonitrile, 283.15 K
  solubility (mole fraction): 0.00616
In acetonitrile, 288.15 K
  solubility (mole fraction): 0.0076
In acetonitrile, 293.15 K
  solubility (mole fraction): 0.00961
In acetonitrile, 298.15 K
  solubility (mole fraction): 0.0122
In acetonitrile, 303.15 K
  solubility (mole fraction): 0.0159
In acetonitrile, 308.15 K
  solubility (mole fraction): 0.02
In acetonitrile, 313.15 K
  solubility (mole fraction): 0.025
In dichloromethane, 273.15 K
  solubility (mole fraction): 0.117
In dichloromethane, 278.15 K
  solubility (mole fraction): 0.13
In dichloromethane, 283.15 K
  solubility (mole fraction): 0.141
In dichloromethane, 288.15 K
  solubility (mole fraction): 0.154
In dichloromethane, 293.15 K
  solubility (mole fraction): 0.165
In dichloromethane, 298.15 K
  solubility (mole fraction): 0.18
In dichloromethane, 303.15 K
  solubility (mole fraction): 0.197
In dichloromethane, 308.15 K
  solubility (mole fraction): 0.213
In dichloromethane, 313.15 K
  solubility (mole fraction): 0.229
In ethanol, 273.15 K
  solubility (mole fraction): 0.000787
In ethanol, 278.15 K
  solubility (mole fraction): 0.000988
In ethanol, 283.15 K
  solubility (mole fraction): 0.00123
In ethanol, 288.15 K
  solubility (mole fraction): 0.00153
In ethanol, 293.15 K
  solubility (mole fraction): 0.00189
In ethanol, 298.15 K
  solubility (mole fraction): 0.00236
In ethanol, 303.15 K
  solubility (mole fraction): 0.0029
In ethanol, 308.15 K
  solubility (mole fraction): 0.00358
In ethanol, 313.15 K
  solubility (mole fraction): 0.00452
In ethyl acetate, 273.15 K
  solubility (mole fraction): 0.0241
In ethyl acetate, 278.15 K
  solubility (mole fraction): 0.0294
In ethyl acetate, 283.15 K
  solubility (mole fraction): 0.0347
In ethyl acetate, 288.15 K
  solubility (mole fraction): 0.0415
In ethyl acetate, 293.15 K
  solubility (mole fraction): 0.0489
In ethyl acetate, 298.15 K
  solubility (mole fraction): 0.0592
In ethyl acetate, 303.15 K
  solubility (mole fraction): 0.0691
In ethyl acetate, 308.15 K
  solubility (mole fraction): 0.0852
In ethyl acetate, 313.15 K
  solubility (mole fraction): 0.101
In methanol, 273.15 K
  solubility (mole fraction): 0.00051
In methanol, 278.15 K
  solubility (mole fraction): 0.000645
In methanol, 283.15 K
  solubility (mole fraction): 0.000817
In methanol, 288.15 K
  solubility (mole fraction): 0.00103
In methanol, 293.15 K
  solubility (mole fraction): 0.00128
In methanol, 298.15 K
  solubility (mole fraction): 0.00161
In methanol, 303.15 K
  solubility (mole fraction): 0.00198
In methanol, 308.15 K
  solubility (mole fraction): 0.00242
In methanol, 313.15 K
  solubility (mole fraction): 0.00298
In methyl acetate, 273.15 K
  solubility (mole fraction): 0.0199
In methyl acetate, 278.15 K
  solubility (mole fraction): 0.0244
In methyl acetate, 283.15 K
  solubility (mole fraction): 0.0292
In methyl acetate, 288.15 K
  solubility (mole fraction): 0.0357
In methyl acetate, 293.15 K
  solubility (mole fraction): 0.0436
In methyl acetate, 298.15 K
  solubility (mole fraction): 0.0532
In methyl acetate, 303.15 K
  solubility (mole fraction): 0.0648
In methyl acetate, 308.15 K
  solubility (mole fraction): 0.0791
In methyl acetate, 313.15 K
  solubility (mole fraction): 0.0961
In n-hexane, 273.15 K
  solubility (mole fraction): 0.000539
In n-hexane, 278.15 K
  solubility (mole fraction): 0.000713
In n-hexane, 283.15 K
  solubility (mole fraction): 0.000988
In n-hexane, 288.15 K
  solubility (mole fraction): 0.00131
In n-hexane, 293.15 K
  solubility (mole fraction): 0.00172
In n-hexane, 298.15 K
  solubility (mole fraction): 0.00223
In n-hexane, 303.15 K
  solubility (mole fraction): 0.00287
In n-hexane, 308.15 K
  solubility (mole fraction): 0.00376
In n-hexane, 313.15 K
  solubility (mole fraction): 0.00449
In n-propanol, 273.15 K
  solubility (mole fraction): 0.001
In n-propanol, 278.15 K
  solubility (mole fraction): 0.00125
In n-propanol, 283.15 K
  solubility (mole fraction): 0.00157
In n-propanol, 288.15 K
  solubility (mole fraction): 0.00196
In n-propanol, 293.15 K
  solubility (mole fraction): 0.00243
In n-propanol, 298.15 K
  solubility (mole fraction): 0.00303
In n-propanol, 303.15 K
  solubility (mole fraction): 0.00372
In n-propanol, 308.15 K
  solubility (mole fraction): 0.00452
In n-propanol, 313.15 K
  solubility (mole fraction): 0.00554
In toluene, 273.15 K
  solubility (mole fraction): 0.0411
In toluene, 278.15 K
  solubility (mole fraction): 0.0487
In toluene, 283.15 K
  solubility (mole fraction): 0.0566
In toluene, 288.15 K
  solubility (mole fraction): 0.0674
In toluene, 293.15 K
  solubility (mole fraction): 0.0802
In toluene, 298.15 K
  solubility (mole fraction): 0.0954
In toluene, 303.15 K
  solubility (mole fraction): 0.11
In toluene, 308.15 K
  solubility (mole fraction): 0.129
In toluene, 313.15 K
  solubility (mole fraction): 0.149
